Values of other authors in patent publication US9687472B2, “Use of antioxidants as an adjuvant to immune stimulators to augment tumor immunity and prevent toxicity associated with oxidative stress” (BATU BIOLOGICS, priority 2014, dated 2017).

Experiments:
[1] = system: endothelial cell; conditions: in vitro
[2] = system: circulating apoptotic endothelial cells; conditions: 2.5 g intravenously and 3 days of 4 g per day oral
[3] = system: human umbilical vein endothelial (HUVEC) cells; conditions: in response to TNF-alpha, in vitro
[4] = 10 mg/kg intravenously before induction of sepsis
[5] = i.v. 66 mg/kg/hr for 24 hours
[6] = system: human endothelial cells; conditions: hypoxic (24 hours; 1% O(2))/reoxygenated (3 hours; 21% O(2)) cells
[7] = system: complement system; conditions: patients

Molecule: O=C1O[C@H]([C@@H](O)CO)C(O)=C1O [AA, ascorbic acid]
- TNF-alpha induced endothelial cell apoptosis [1]: reduction
- circulating apoptotic endothelial cells [2]: reduction
- endothelial cell expression of ICAM-1 [3]: reduce
- survival [4]: 50%
- 24 hr total fluid infusion volume [5]: statistically significant reductions
- fluid retention (indicative of vascular leakage) [5]: statistically significant reductions
- need for mechanical ventilation [5]: 12.1 ± 8.8 days

Molecule: O=C[C@@H](O)[C@@H](O)[C@H](O)[C@H](O)CO [D-mannose]
- complement activation (iC3b deposition) [6]: blocked activation

Molecule: O=C[C@H](O)[C@H](O)[C@@H](O)[C@@H](O)CO [L-mannose]
- complement activation (iC3b deposition) [6]: not

Molecule: CC(=O)N[C@H]1C(O)O[C@H](CO)[C@@H](O)[C@@H]1O (stereo partly drawn) [N-acetyl-D-glucosamine]
- complement activation (iC3b deposition) [6]: blocked activation

B1: C1 esterase inhibitor: complement inhibitor (protein, UniProt P05155 23-500, looked up)
Plasma protease C1 inhibitor: NPNATSSSSQDPESLQDRGEGKVATTVISKMLFVEPILEVSSLPTTNSTTNSATKITANTTDEPTTQPTTEPTTQPTIQPTQPTTQLPTDSPTQPTTGSFCPGPVTLCSDLESHSTEAVLGDALVDFSLKLYHAFSAMKKVETNMAFSPFSIASLLTQVLLGAGENTKTNLESILSYPKDFTCVHQALKGFTTKGVTSVSQIFHSPDLAIRDTFVNASRTLYSSSPRVLSNNSDANLELINTWVAKNTNNKISRLLDSLPSDTRLVLLNAIYLSAKWKTTFDPKKTRMEPFHFKNSVIKVPMMNSKKYPVAHFIDQTLKAKVGQLQLSHNLSLVILVPQNLKHRLEDMEQALSPSVFKAIMEKLEMSKFQPTLLTLPRIKVTTSQDMLSIMEKLEFFDFSYDLNLCGLTEDPDLQVSAMQHQTVLELTETGVEAAAASAISVARTLLVFEVQQPFLFVLWDQQHKFPVFMGRVYDPRA
- IL-2 induced hypotension and complement activation [7]: capable of reducing
